# Test results from ChEMBL document CHEMBL1201862, “PubChem BioAssay data set” (2004).
#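 Exposure lasted 48 hours, with cells grown in 96-well plates and compounds tested at five concentrations. The concentration for 50% growth inhibition is given as GI50.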 Calls of active or inactive are those of the source. No stated cut-off is given here; in the data, active = GI50 up to about 1.1 µM and inactive = higher.
# Columns and labels:
# Experiment in all cases: NCI anticancer screen, dose series, 48 h
# 786-0 = test system: 786-0
# A549 = test system: A549
# ACHN = test system: ACHN
# CCRF-CEM = test system: CCRF-CEM
# COLO 205 = test system: COLO 205
# DLD-1 = test system: DLD-1
# DMS-273 = test system: DMS-273
# HCC 2998 = test system: HCC 2998
# HCT-15 = test system: HCT-15
# HOP-62 = test system: HOP-62
# HOP-92 = test system: HOP-92
# IGROV-1 = test system: IGROV-1
# K562 = test system: K562
# KM-20L2 = test system: KM-20L2
# LOX IMVI = test system: LOX IMVI
# LXFL 529 = test system: LXFL 529
# M14 = test system: M14
# M19-MEL = test system: M19-MEL
# MOLT-4 = test system: MOLT-4
# Malme-3M = test system: Malme-3M
# NCI-H460 = test system: NCI-H460
# OVCAR-4 = test system: OVCAR-4
# RPMI-8226 = test system: RPMI-8226
# SK-OV-3 = test system: SK-OV-3
# SN12C = test system: SN12C
# SNB-78 = test system: SNB-78
# SW-620 = test system: SW-620
# U-251 = test system: U-251
# UACC-62 = test system: UACC-62
# XF498 = test system: XF498
# CAKI-1 = test system: CAKI-1
# DMS-114 = test system: DMS-114
# EKVX = test system: EKVX
# HCT-116 = test system: HCT-116
# HL-60 = test system: HL-60
# HT-29 = test system: HT-29
# KM12 = test system: KM12
# NCI-H226 = test system: NCI-H226
# NCI-H522 = test system: NCI-H522
# OVCAR-3 = test system: OVCAR-3
# OVCAR-5 = test system: OVCAR-5
# OVCAR-8 = test system: OVCAR-8
# SF-268 = test system: SF-268
# SF-295 = test system: SF-295
# SF-539 = test system: SF-539
# SK-MEL-28 = test system: SK-MEL-28
# SK-MEL-2 = test system: SK-MEL-2
# SNB-19 = test system: SNB-19
# SR = test system: SR
# TK-10 = test system: TK-10
# UO-31 = test system: UO-31
compound,measurement,setting,value
CCOC(=O)C(Cc1ccc2ccccc2c1)(Cc1ccc2ccccc2c1)C(C)=O,GI50,786-0,4.92 µM (inactive)
same,GI50,A549,3.78 µM (inactive)
same,GI50,ACHN,> 10 µM (inactive)
same,GI50,CCRF-CEM,5.13 µM (inactive)
same,GI50,COLO 205,> 10 µM (inactive)
same,GI50,DLD-1,2.69 µM (inactive)
same,GI50,DMS-273,5.38 µM (inactive)
same,GI50,HCC 2998,3.02 µM (inactive)
same,GI50,HCT-15,8.47 µM
same,GI50,HOP-62,7.53 µM (inactive)
same,GI50,HOP-92,5.41 µM (inactive)
same,GI50,IGROV-1,> 10 µM (inactive)
same,GI50,K562,1.67 µM (inactive)
same,GI50,KM-20L2,> 10 µM (inactive)
same,GI50,LOX IMVI,> 10 µM (inactive)
same,GI50,LXFL 529,4.47 µM (inactive)
same,GI50,M14,> 10 µM (inactive)
same,GI50,M19-MEL,> 10 µM (inactive)
same,GI50,MOLT-4,0.635 µM (active)
same,GI50,Malme-3M,3.28 µM (inactive)
same,GI50,NCI-H460,7.31 µM (inactive)
same,GI50,OVCAR-4,8.67 µM (inactive)
same,GI50,RPMI-8226,1.86 µM (inactive)
same,GI50,SK-OV-3,> 10 µM (inactive)
same,GI50,SN12C,> 10 µM (inactive)
same,GI50,SNB-78,> 10 µM (inactive)
same,GI50,SW-620,> 10 µM (inactive)
same,GI50,U-251,> 10 µM (inactive)
same,GI50,UACC-62,> 10 µM (inactive)
same,GI50,XF498,3.39 µM (inactive)
COc1ccc(-c2c3ccccc3c(-c3ccc(OCCCCCBr)cc3)c3ccccc23)cc1,GI50,A549,> 100 µM (inactive)
same,GI50,ACHN,> 100 µM (inactive)
same,GI50,CAKI-1,> 100 µM (inactive)
same,GI50,CCRF-CEM,> 100 µM (inactive)
same,GI50,COLO 205,> 100 µM (inactive)
same,GI50,DLD-1,> 100 µM (inactive)
same,GI50,DMS-114,> 100 µM (inactive)
same,GI50,DMS-273,> 100 µM (inactive)
same,GI50,EKVX,> 100 µM (inactive)
same,GI50,HCC 2998,> 100 µM (inactive)
same,GI50,HCT-116,> 100 µM (inactive)
same,GI50,HCT-15,> 100 µM
same,GI50,HL-60,> 100 µM (inactive)
same,GI50,HOP-62,> 100 µM (inactive)
same,GI50,HOP-92,> 100 µM (inactive)
same,GI50,HT-29,> 100 µM (inactive)
same,GI50,IGROV-1,> 100 µM (inactive)
same,GI50,K562,> 100 µM (inactive)
same,GI50,KM-20L2,> 100 µM (inactive)
same,GI50,KM12,> 100 µM (inactive)
same,GI50,LOX IMVI,> 100 µM (inactive)
same,GI50,LXFL 529,> 100 µM (inactive)
same,GI50,M14,> 100 µM (inactive)
same,GI50,M19-MEL,> 100 µM (inactive)
same,GI50,MOLT-4,> 100 µM (inactive)
same,GI50,Malme-3M,> 100 µM (inactive)
same,GI50,NCI-H226,> 100 µM (inactive)
same,GI50,NCI-H460,> 100 µM (inactive)
same,GI50,NCI-H522,> 100 µM (inactive)
same,GI50,OVCAR-3,> 100 µM (inactive)
same,GI50,OVCAR-4,> 100 µM (inactive)
same,GI50,OVCAR-5,> 100 µM (inactive)
same,GI50,OVCAR-8,> 100 µM (inactive)
same,GI50,RPMI-8226,> 100 µM (inactive)
same,GI50,SF-268,> 100 µM (inactive)
same,GI50,SF-295,> 100 µM (inactive)
same,GI50,SF-539,> 100 µM (inactive)
same,GI50,SK-MEL-28,> 100 µM (inactive)
same,GI50,SK-MEL-2,> 100 µM (inactive)
same,GI50,SK-OV-3,> 100 µM (inactive)
same,GI50,SN12C,> 100 µM (inactive)
same,GI50,SNB-19,> 100 µM (inactive)
same,GI50,SR,> 100 µM (inactive)
same,GI50,SW-620,> 100 µM (inactive)
same,GI50,TK-10,> 100 µM (inactive)
same,GI50,UACC-62,> 100 µM (inactive)
same,GI50,UO-31,> 100 µM (inactive)
